Tested on: rodent lifetime carcinogenesis bioassay, tumor incidence TD50
Assay: carcinogenic potency in animals, long-term in vivo studies, CPDB compilation (AID 1745844)
Conditions: rat, strain Fischer 344, by gavage

ClCC(Cl)CCl
TD50 (females, site: mammary gland, lesion: fibroadenoma, dosed 91 weeks, study length 105 weeks): 3.42 mg/kg/day | TD50 (females, site: palate + pharynx + tongue, lesion: squamous-cell papilloma + squamous-cell carcinoma, dosed 91 weeks, study length 105 weeks): 2.93 mg/kg/day | TD50 (females, site: palate + pharynx, lesion: squamous-cell carcinoma, dosed 91 weeks, study length 105 weeks): 8.87 mg/kg/day | TD50 (females, site: palate + tongue, lesion: squamous-cell papilloma, dosed 91 weeks, study length 105 weeks): 5.98 mg/kg/day | TD50 (females, site: palate, lesion: squamous-cell papilloma, dosed 91 weeks, study length 105 weeks): 18.5 mg/kg/day | TD50 (females, site: pharynx + tongue, lesion: squamous-cell carcinoma, dosed 91 weeks, study length 105 weeks): 5.12 mg/kg/day | TD50 (females, site: thyroid gland, lesion: follicular-cell adenoma + follicular-cell carcinoma, dosed 91 weeks, study length 105 weeks): 25.2 mg/kg/day | TD50 (females, site: thyroid gland, lesion: follicular-cell adenoma, dosed 91 weeks, study length 105 weeks): 36.9 mg/kg/day | TD50 (females, site: tongue, lesion: squamous-cell carcinoma + squamous-cell papilloma, dosed 91 weeks, study length 105 weeks): 4.7 mg/kg/day | TD50 (females, site: tongue, lesion: squamous-cell carcinoma, dosed 91 weeks, study length 105 weeks): 10.1 mg/kg/day | TD50 (females, site: tongue, lesion: squamous-cell papilloma, dosed 91 weeks, study length 105 weeks): 9.61 mg/kg/day | TD50 (males, site: Zymbal's gland, lesion: carcinoma, dosed 94 weeks, study length 104 weeks): 297 mg/kg/day | TD50 (males, site: adrenal medulla, lesion: pheochromocytoma benign, bilateral + pheochromocytoma, benign, dosed 94 weeks, study length 104 weeks): 12.4 mg/kg/day | TD50 (males, site: adrenal medulla, lesion: pheochromocytoma benign, bilateral + pheochromocytoma, complex + pheochromocytoma, malignant + pheochromocytoma, benign, dosed 94 weeks, study length 104 weeks): 11.4 mg/kg/day | TD50 (males, site: all sites, lesion: mononuclear-cell leukemia, dosed 94 weeks, study length 104 weeks): 11.9 mg/kg/day | TD50 (males, site: any site (literature study), lesion: several types, types named in the paper, dosed 94 weeks, study length 104 weeks): 1.36 mg/kg/day | TD50 (males, site: colon + jejunum + rectum, lesion: adenocarcinoma + adenomatous polyp, dosed 94 weeks, study length 104 weeks): 73.4 mg/kg/day | TD50 (males, site: colon + jejunum, lesion: adenocarcinoma, dosed 94 weeks, study length 104 weeks): 102 mg/kg/day | TD50 (males, site: colon + rectum, lesion: adenomatous polyp, dosed 94 weeks, study length 104 weeks): 264 mg/kg/day | TD50 (males, site: forestomach + kidney + palate + pancreas + preputial gland + tongue + Zymbal's gland, lesion: squamous-cell carcinoma + squamous-cell papilloma + tubule adenoma + adenoma + acinar-cell adenoma + acinar-cell adenocarcinoma + ca, dosed 94 weeks, study length 104 weeks): 1.1 mg/kg/day | TD50 (males, site: forestomach, lesion: squamous-cell carcinoma + squamous-cell papilloma, dosed 94 weeks, study length 104 weeks): 1.15 mg/kg/day | TD50 (males, site: forestomach, lesion: squamous-cell carcinoma, dosed 94 weeks, study length 104 weeks): 3 mg/kg/day | TD50 (males, site: forestomach, lesion: squamous-cell papilloma, dosed 94 weeks, study length 104 weeks): 1.53 mg/kg/day | TD50 (males, site: kidney, lesion: tubule adenoma, dosed 94 weeks, study length 104 weeks): 4.44 mg/kg/day | TD50 (males, site: liver, lesion: hepatocellular adenoma + hepatoblastoma + hepatocellular carcinoma, dosed 94 weeks, study length 104 weeks): 23 mg/kg/day | TD50 (males, site: liver, lesion: hepatocellular adenoma + hepatocellular carcinoma, dosed 94 weeks, study length 104 weeks): 23 mg/kg/day | TD50 (males, site: liver, lesion: hepatocellular adenoma, dosed 94 weeks, study length 104 weeks): 31.7 mg/kg/day | TD50 (males, site: palate + tongue, lesion: squamous-cell carcinoma + squamous-cell papilloma, dosed 94 weeks, study length 104 weeks): 4.48 mg/kg/day | TD50 (males, site: palate + tongue, lesion: squamous-cell carcinoma, dosed 94 weeks, study length 104 weeks): 8.65 mg/kg/day | TD50 (males, site: palate + tongue, lesion: squamous-cell papilloma, dosed 94 weeks, study length 104 weeks): 8.16 mg/kg/day | TD50 (males, site: palate, lesion: squamous-cell carcinoma, dosed 94 weeks, study length 104 weeks): 11.7 mg/kg/day | TD50 (males, site: palate, lesion: squamous-cell papilloma, dosed 94 weeks, study length 104 weeks): 36.6 mg/kg/day | TD50 (males, site: pancreas, lesion: acinar-cell adenocarcinoma, dosed 94 weeks, study length 104 weeks): 51.5 mg/kg/day | TD50 (males, site: pancreas, lesion: adenoma + acinar-cell adenoma + acinar-cell adenocarcinoma, dosed 94 weeks, study length 104 weeks): 1.65 mg/kg/day | TD50 (males, site: pancreas, lesion: adenoma + acinar-cell adenoma, dosed 94 weeks, study length 104 weeks): 1.65 mg/kg/day | TD50 (males, site: preputial gland, lesion: adenoma + carcinoma, dosed 94 weeks, study length 104 weeks): 9.59 mg/kg/day | TD50 (males, site: preputial gland, lesion: adenoma, dosed 94 weeks, study length 104 weeks): 14 mg/kg/day | TD50 (males, site: preputial gland, lesion: carcinoma, dosed 94 weeks, study length 104 weeks): 28 mg/kg/day | TD50 (males, site: skin, lesion: basal-cell carcinoma + keratoacanthoma + squamous-cell carcinoma + squamous-cell papilloma + trichoepithelioma, dosed 94 weeks, study length 104 weeks): 20.8 mg/kg/day | TD50 (males, site: skin, lesion: squamous-cell carcinoma + squamous-cell papilloma, dosed 94 weeks, study length 104 weeks): 39.6 mg/kg/day | TD50 (males, site: skin, lesion: squamous-cell papilloma, dosed 94 weeks, study length 104 weeks): 51 mg/kg/day | TD50 (males, site: subcutaneous tissue, lesion: fibroma + sarcoma, dosed 94 weeks, study length 104 weeks): 19.6 mg/kg/day | TD50 (males, site: subcutaneous tissue, lesion: fibroma, dosed 94 weeks, study length 104 weeks): 20.2 mg/kg/day | TD50 (males, site: testis, lesion: interstitial-cell adenoma, bilateral + interstitial-cell adenoma, dosed 94 weeks, study length 104 weeks): 1.35 mg/kg/day | TD50 (males, site: thyroid gland, lesion: c-cell adenoma + c-cell carcinoma, dosed 94 weeks, study length 104 weeks): 8.15 mg/kg/day | TD50 (males, site: thyroid gland, lesion: c-cell adenoma, dosed 94 weeks, study length 104 weeks): 10.3 mg/kg/day | TD50 (males, site: thyroid gland, lesion: follicular-cell adenoma + follicular-cell carcinoma, dosed 94 weeks, study length 104 weeks): 35.2 mg/kg/day | TD50 (males, site: tongue, lesion: squamous-cell carcinoma + squamous-cell papilloma, dosed 94 weeks, study length 104 weeks): 7.86 mg/kg/day | TD50 (males, site: tongue, lesion: squamous-cell carcinoma, dosed 94 weeks, study length 104 weeks): 34.7 mg/kg/day | TD50 (males, site: tongue, lesion: squamous-cell papilloma, dosed 94 weeks, study length 104 weeks): 10.2 mg/kg/day

— PubChem BioAssay AID1745844 (Carcinogenic Potency Database (CPDB), 2022)
